In general, pIC50 refers to the IC50 on a negative log10 scale, so that one unit is a factor of ten.

pIC50: −log10 of the molar value. Active and inactive are the calls of the source. The rule behind the calls is not given here.

Experimental findings from ChEMBL document CHEMBL3627602, “Synthesis of a novel series of 2,3,4-trisubstituted oxazolidines designed by isosteric replacement or rigidification of the structure and cytotoxic evaluation” (Medchemcomm, 2014) are described below.

In assay [1] the test system is LNCaP. Briefly: Antiproliferative activity against human LNCAP cells incubated for 48 hrs by MTT assay. Format: functional, cell-based. For orientation: Formazan colour is commonly taken as a measure of viable cells.
In assay [2] the test system is HL-60. Description: Antiproliferative activity against human HL60 cells incubated for 48 hrs by MTT assay. The following applies: HL-60, 48 h. Format: functional, cell-based.
Assay [3] relates to MDA-MB-231. Briefly: Antiproliferative activity against human MDA-MB-231 cells incubated for 48 hrs by MTT assay. Format: functional, cell-based. Conditions: MDA-MB-231, 48 h.
Another assay has as its system Jurkat. Description: Antiproliferative activity against human Jurkat cells incubated for 48 hrs by MTT assay. In kind it is functional, cell-based.
Assay [4] relates to MDA-MB-231. Briefly: Induction of DNA fragmentation in human MDA-MB-231 cells at 50 uM after 24 hrs using propidium iodide staining by flow cytometric analysis. Format: functional, cell-based.
The subject of the next assay is Vero. Briefly: Cytotoxicity against African green monkey Vero cells incubated for 48 hrs by MTT assay. The following applies: Chlorocebus sabaeus. In kind it is cell-based.
The subject of assay [5] is HL-60. Briefly: Induction of DNA fragmentation in human HL60 cells at 50 uM after 24 hrs using propidium iodide staining by flow cytometric analysis. Format: functional, cell-based. (In general: In flow cytometry, cells or beads pass a laser one at a time.)
Assay [6] relates to LNCaP. Description: Selectivity index, ratio of IC50 for human PBMC to IC50 for human LNCAP cells.
The test system of assay [7] is LNCaP. Description: Selectivity index, ratio of IC50 for African green monkey Vero cells to IC50 for human LNCAP cells. Format: functional.
The subject of the next assay is PBMC. Briefly: Antiproliferative activity against human PBMC incubated for 48 hrs by MTT assay. Format: cell-based.

For `COC(=O)c1ccc(CC[C@H]2COC(C)(C)N2C(=O)OC(C)(C)C)cc1`, the pIC50 is 4.43 in the assay with LNCaP [1], 4.70 in the assay with HL-60 [2], < 4.10 in the assay with MDA-MB-231 [3] and < 4.30 in the assay with Jurkat.
The corresponding values for `CC(C)(C)OC(=O)N1[C@@H](C(=O)Nc2ccc([N+](=O)[O-])cc2)COC1(C)C` are < 4.10, < 4.30, < 4.10 and < 4.30.
Consider `CC(C)(C)OC(=O)N1[C@@H](/C=C/c2ccc([N+](=O)[O-])cc2)COC1(C)C`, for which the pIC50 in the assay with LNCaP [1] was 4.96; with Vero, < 4.00; in the assay on HL-60 [2], 4.64; with MDA-MB-231 [3], 4.49; in the assay on Jurkat, 4.34; with PBMC, < 4.00. In the assay with MDA-MB-231 [4], the outcome was inactive. Besides, the outcome in the assay with HL-60 [5] was Active. For the same compound, the “Ratio IC50” value with LNCaP [6] and with LNCaP [7] was >9 throughout.
Take `CC(C)(C)OC(=O)N1[C@@H](CSc2ccc([N+](=O)[O-])cc2)COC1(C)C`: the pIC50 in the assay with LNCaP [1] is < 4.10; in the assay with HL-60 [2], < 4.30; in the assay with MDA-MB-231 [3], < 4.10; in the assay on Jurkat it was < 4.30.
For `CC(C)(C)OC(=O)N1[C@@H](/C=C\c2ccc([N+](=O)[O-])cc2)COC1(C)C`, the pIC50 was 4.57 in the assay on LNCaP [1]; < 4.00 with Vero; 4.74 with HL-60 [2]; 4.49 in the assay with MDA-MB-231 [3]; 4.38 in the assay with Jurkat; < 4.00 in the assay on PBMC. The outcome in the assay on MDA-MB-231 [4] was inactive. The result in the assay with HL-60 [5] was Active.
